{"source": "patent US20220251640A1", "about": "“METHODS OF DETERMINATION OF GENOME ARCHITECTURE AND EPIGENETIC PROFILE” (THE BROAD INSTITUTE, INC., priority 2019, published 2022)", "key": {"GM12878 cells": {"tested_on": "GM12878 cells", "experiment": "Hi-Culfite on GM12878 cells treated with 5-azacytidine (methylation inhibition experiment)", "assay_type": "cell-based, human", "settings": "for CpG C->T conversion: DMSO control 45.37%", "description": "(§1) Hi-Culfite library construction (FIG. 1A) followed the initial steps of an in situ Hi-C protocol (8). One million cells were crosslinked with formaldehyde; chromatin was digested with a restriction enzyme; and the overhangs were filled in, incorporating a biotinylated nucleotide to mark the fragment ends after ligation. The DNA was then purified and sheared. Next, Applicants performed bisulfite conversion, which converted unmethylated cytosine residues into uracil but left methylated cytosine residues intact. Applicants captured the resulting single-stranded, biotin-marked ligation products on streptavidin beads. Finally, Applicants added adapters to the 3′ end, synthesized the second strand by primer extension, ligated adapters to the 3′ end of the 2nd strand, and PCR amplified with indexed primers.\n(§2) Cell Culture: All commercial cell lines were cultured following vendors' recommendations to about 80% confluency before they were harvested and cross-linked in fresh complete medium. For methylation inhibition experiments, cultures of GM12878 (Coriell Institute) and Hap1 (Horizon) were grown for 8 days in medium supplemented with DMSO without drug or with 1 μM or 5 μM 5-azacytidine (Sigma Aldrich) solubilized in DMSO, refreshing the medium/drug every two days.\n(§3) Library Construction: Hi-C libraries were prepared using the protocol described (8) Briefly, one million cells were crosslinked with 1% formaldehyde for 10 minutes at room temperature and then quenched with 0.2 M glycine solution. Cells were lysed and nuclei permeabilized with 0.5% SDS for 10 minutes at 62° C. Chromatin was digested with 100 U of MboI restriction enzyme (NEB). Ends of the restriction fragments were filled-in and labeled with a biotinylated nucleotide and then ligated. Nuclei were pelleted, proteins were digested with proteinase K, and crosslinks were reversed by heating at 68° C. overnight. DNA was sheared in a Covaris focused ultrasonicator to a length of 300-500 bp. Size-selected DNA was split for processing with two workflows—10% of the material was used for preparation of a regular Hi-C library (unconverted control) and 90% of the DNA was used for Hi-Culfite library construction. Hi-C libraries were finished by enriching for biotinylated ligation junctions through binding to T1 streptavidin beads (Thermo Fisher) and preparing the library for Illumina sequencing performing the end-repair, A-tailing and adapter ligation steps with DNA attached to the beads. Libraries were amplified directly off the beads and purified for subsequent Illumina sequencing.\n(§4) DNA for Hi-Culfite was first treated with sodium bisulfite using EpiTect Fast bisulfite conversion kit (Qiagen) following the kit's instructions and extending each of the two 60° C. conversion incubations to 20 minutes. Converted DNA was purified without addition of an RNA carrier to the binding buffer. Biotinylated ligation junctions in purified bisulfite-converted DNA were captured on 15 μl C1 streptavidin beads (Thermo Fisher) in denaturing binding buffer (10 mM Tris pH 7.5; 5 mM EDTA; 500 mM LiCl; 0.5% Igepal CA630; 0.2% SDS; 4 M Urea) for 10 minutes at 55° C. DNA was washed twice with binding buffer at 55° C. and once with 10 mM Tris. Beads were resuspended in 15 μl of 10 mM Tris, and libraries were detached from the beads by heating for 5 minutes at 95° C. After separating on a magnet, library construction for Illumina sequencing was performed on the supernatant containing ssDNA library using Accel-NGS Methyl-Seq kit (Swift Biosciences) following the kit's manual.\nMethylation Track Generation with MethylDackel: Duplicate Hi-C contacts were marked as duplicates in the methylation BAM. Applicants then called the program Methyl Dackel extract with the flag “-F 1024”; this ignored duplicates reads but kept all other mapped reads with MAPQ ≥10. MethylDackel generated CpG methylation tracks, a cytosine coverage report, and an input file for the analysis program MethylKit26. […]"}, "Hap1 cells": {"tested_on": "Hap1 cells", "experiment": "Hi-Culfite on Hap1 cells treated with 5-azacytidine (methylation inhibition experiment)", "assay_type": "cell-based", "settings": "for CpG C->T conversion: DMSO control 37.66%", "description": "as §1, §2, §3\nas §4, with “Beads were resuspended in 15 μl of 10 mM Tris, and libraries were detached from the beads by heating for 5 minutes at 95° C. After separating on a magnet, library construction for Illumina sequencing was performed on the supernatant containing ssDNA library using Accel-NGS Methyl-Seq kit (Swift Biosciences) following the kit's manual.” left out\nMethylation Track Generation with MethylDackel: Duplicate Hi-C contacts were marked as duplicates in the methylation BAM. Applicants then called the program Methyl Dackel extract with the flag “-F 1024”; this ignored duplicates reads but kept all other mapped reads with MAPQ ≥10. […]"}}, "note": "Entries after “also recorded” stand apart in the source; their conditions may differ.", "data": [{"smiles": "Nc1ncn([C@@H]2O[C@H](CO)[C@@H](O)[C@H]2O)c(=O)n1", "note": "[5-azacytidine]", "values": [{"measurement": "CpG C->T conversion", "setting": "GM12878 cells; GM12878, 1 μM 5-azacytidine in DMSO, 8 days", "value": 69.46, "unit": "%"}, {"measurement": "impact on nuclear architecture / chromosome-level nuclear organization (contact maps, eigenvectors)", "setting": "GM12878 cells; GM12878, 1 uM and 5 uM, 8 days, vs DMSO", "value": "did not discern an impact on nuclear architecture; also recorded: no effect on chromosome-level nuclear organization"}, {"measurement": "CpG C->T conversion", "setting": "GM12878 cells; GM12878, 5 μM 5-azacytidine in DMSO, 8 days", "value": 75.08, "unit": "%"}, {"measurement": "looping signal by Aggregate Peak Analysis", "setting": "GM12878 cells; GM12878, increasing 5-azacytidine concentration", "value": "no significant changes in looping signal"}, {"measurement": "genome-wide decline of methylation (on average)", "setting": "GM12878 cells; GM12878 treated with 5-azacytidine, average stated jointly for GM12878 and HapI", "value": 2, "unit": "fold"}, {"measurement": "nucleosome occupancy and directional methylation asymmetry at CTCF motifs (aggregate methylation analysis)", "setting": "GM12878 cells; increasing concentration of 5-azacytidine, GM12878 CTCF motifs", "value": "no changes to nucleosome occupancy and directional methylation asymmetry"}, {"measurement": "impact on nuclear architecture / chromosome-level nuclear organization (contact maps, eigenvectors)", "setting": "Hap1 cells; Hap1, 1 uM and 5 uM, 8 days, vs DMSO", "value": "did not discern an impact on nuclear architecture; also recorded: no effect on chromosome-level nuclear organization"}, {"measurement": "CpG C->T conversion", "setting": "Hap1 cells; Hap-1, 1 μM 5-azacytidine in DMSO, 8 days", "value": 86.16, "unit": "%"}, {"measurement": "CpG C->T conversion", "setting": "Hap1 cells; Hap-1, 5 μM 5-azacytidine in DMSO, 8 days", "value": 85.79, "unit": "%"}, {"measurement": "genome-wide decline of methylation (on average)", "setting": "Hap1 cells; HapI treated with 5-azacytidine, average stated jointly for GM12878 and HapI", "value": 2, "unit": "fold"}, {"measurement": "looping signal by Aggregate Peak Analysis", "setting": "Hap1 cells; HapI, increasing 5-azacytidine concentration", "value": "no significant changes in looping signal"}]}]}
